From ChEMBL document CHEMBL1201862, “PubChem BioAssay data set” (2004)
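Five concentrations, 48 hours, 96-well plates. The concentration for 50% growth inhibition is given as GI50.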 Active and inactive are the calls of the source. Rule as the data show it: active = GI50 up to about 1.1 µM and inactive = higher.

What was measured:
Experiment in all cases: growth of human tumour cells (NCI), 48 h
OVCAR-8 = system: OVCAR-8
DU-145 = system: DU-145
MDA-MB-231 = system: MDA-MB-231
SF-268 = system: SF-268
HCC 2998 = system: HCC 2998
T47D = system: T47D
OVCAR-5 = system: OVCAR-5
UACC-257 = system: UACC-257
M14 = system: M14
SW-620 = system: SW-620
MDA-N = system: MDA-N
UO-31 = system: UO-31
HCT-15 = system: HCT-15
ACHN = system: ACHN
IGROV-1 = system: IGROV-1
MOLT-4 = system: MOLT-4
SNB-19 = system: SNB-19
SR = system: SR
SK-MEL-2 = system: SK-MEL-2
SK-MEL-5 = system: SK-MEL-5
HL-60 = system: HL-60
Hs-578T = system: Hs-578T
NCI-H226 = system: NCI-H226
NCI-H23 = system: NCI-H23
Malme-3M = system: Malme-3M
HOP-62 = system: HOP-62
NCI/ADR-RES = system: NCI/ADR-RES
HOP-92 = system: HOP-92
786-0 = system: 786-0
BT-549 = system: BT-549
SN12C = system: SN12C
PC-3 = system: PC-3
U-251 = system: U-251
TK-10 = system: TK-10
LOX IMVI = system: LOX IMVI
CCRF-CEM = system: CCRF-CEM
SK-MEL-28 = system: SK-MEL-28
CAKI-1 = system: CAKI-1
SNB-75 = system: SNB-75
K562 = system: K562
OVCAR-3 = system: OVCAR-3
EKVX = system: EKVX
HT-29 = system: HT-29
SF-539 = system: SF-539
MDA-MB-435 = system: MDA-MB-435
RXF 393 = system: RXF 393
KM12 = system: KM12
NCI-H460 = system: NCI-H460
COLO 205 = system: COLO 205
SK-OV-3 = system: SK-OV-3
MCF7 = system: MCF7
RPMI-8226 = system: RPMI-8226
OVCAR-4 = system: OVCAR-4
SF-295 = system: SF-295
UACC-62 = system: UACC-62
HCT-116 = system: HCT-116
A549 = system: A549
A498 = system: A498
NCI-H522 = system: NCI-H522

## O=C(OCCN=c1c2ccccc2ccc2ccccc12)c1ccc([N+](=O)[O-])cc1
OVCAR-8
  GI50: > 100 µM (inactive)
DU-145
  GI50: > 100 µM (inactive)
MDA-MB-231
  GI50: > 100 µM (inactive)
SF-268
  GI50: > 100 µM (inactive)
HCC 2998
  GI50: > 100 µM (inactive)
T47D
  GI50: > 100 µM (inactive)
OVCAR-5
  GI50: > 100 µM (inactive)
UACC-257
  GI50: > 100 µM (inactive)
M14
  GI50: > 100 µM (inactive)
SW-620
  GI50: > 100 µM (inactive)
MDA-N
  GI50: > 100 µM (inactive)
UO-31
  GI50: > 100 µM (inactive)
HCT-15
  GI50: > 100 µM
ACHN
  GI50: > 100 µM (inactive)
IGROV-1
  GI50: > 100 µM (inactive)
MOLT-4
  GI50: > 100 µM (inactive)
SNB-19
  GI50: > 100 µM (inactive)
SR
  GI50: > 100 µM (inactive)
SK-MEL-2
  GI50: > 100 µM (inactive)
SK-MEL-5
  GI50: > 100 µM (inactive)
HL-60
  GI50: > 100 µM (inactive)
Hs-578T
  GI50: > 100 µM (inactive)
NCI-H226
  GI50: > 100 µM (inactive)
NCI-H23
  GI50: > 100 µM (inactive)
Malme-3M
  GI50: > 100 µM (inactive)
HOP-62
  GI50: > 100 µM (inactive)
NCI/ADR-RES
  GI50: > 100 µM (inactive)
HOP-92
  GI50: > 100 µM (inactive)
786-0
  GI50: > 100 µM (inactive)
BT-549
  GI50: > 100 µM (inactive)
SN12C
  GI50: > 100 µM (inactive)
PC-3
  GI50: > 100 µM (inactive)
U-251
  GI50: > 100 µM (inactive)
TK-10
  GI50: > 100 µM (inactive)
LOX IMVI
  GI50: > 100 µM (inactive)
CCRF-CEM
  GI50: > 100 µM (inactive)
SK-MEL-28
  GI50: > 100 µM (inactive)
CAKI-1
  GI50: > 100 µM (inactive)
SNB-75
  GI50: > 100 µM (inactive)
K562
  GI50: > 100 µM (inactive)
OVCAR-3
  GI50: > 100 µM (inactive)
EKVX
  GI50: > 100 µM (inactive)
HT-29
  GI50: > 100 µM (inactive)
SF-539
  GI50: > 100 µM (inactive)
MDA-MB-435
  GI50: > 100 µM (inactive)
RXF 393
  GI50: > 100 µM (inactive)
KM12
  GI50: > 100 µM (inactive)
NCI-H460
  GI50: > 100 µM (inactive)
COLO 205
  GI50: > 100 µM (inactive)
SK-OV-3
  GI50: > 100 µM (inactive)
MCF7
  GI50: > 100 µM (inactive)
RPMI-8226
  GI50: > 100 µM (inactive)
OVCAR-4
  GI50: > 100 µM (inactive)
SF-295
  GI50: > 100 µM (inactive)
UACC-62
  GI50: > 100 µM (inactive)
HCT-116
  GI50: > 100 µM (inactive)
A549
  GI50: > 100 µM (inactive)

## Cc1ccc(S(=O)(=O)CN2C(=O)C(c3ccccc3)(c3ccccc3)C23OC(c2ccc(Cl)cc2)=CC3=O)cc1 (stereo unspecified)
OVCAR-8
  GI50: > 10 µM (inactive)
DU-145
  GI50: > 10 µM (inactive)
MDA-MB-231
  GI50: > 10 µM (inactive)
SF-268
  GI50: > 10 µM (inactive)
HCC 2998
  GI50: > 10 µM (inactive)
T47D
  GI50: > 10 µM (inactive)
OVCAR-5
  GI50: > 10 µM (inactive)
UACC-257
  GI50: > 10 µM (inactive)
M14
  GI50: > 10 µM (inactive)
SW-620
  GI50: > 10 µM (inactive)
A498
  GI50: > 10 µM (inactive)
MDA-N
  GI50: > 10 µM (inactive)
UO-31
  GI50: > 10 µM (inactive)
HCT-15
  GI50: > 10 µM
ACHN
  GI50: > 10 µM (inactive)
IGROV-1
  GI50: > 10 µM (inactive)
MOLT-4
  GI50: > 10 µM (inactive)
SNB-19
  GI50: > 10 µM (inactive)
SK-MEL-2
  GI50: > 10 µM (inactive)
SK-MEL-5
  GI50: > 10 µM (inactive)
HL-60
  GI50: > 10 µM (inactive)
Hs-578T
  GI50: > 10 µM (inactive)
NCI-H226
  GI50: > 10 µM (inactive)
NCI-H23
  GI50: > 10 µM (inactive)
Malme-3M
  GI50: > 10 µM (inactive)
HOP-62
  GI50: > 10 µM (inactive)
NCI/ADR-RES
  GI50: > 10 µM (inactive)
HOP-92
  GI50: > 10 µM (inactive)
786-0
  GI50: > 10 µM (inactive)
BT-549
  GI50: > 10 µM (inactive)
SN12C
  GI50: > 10 µM (inactive)
PC-3
  GI50: 4.07 µM (inactive)
NCI-H522
  GI50: > 10 µM (inactive)
U-251
  GI50: > 10 µM (inactive)
TK-10
  GI50: > 10 µM (inactive)
LOX IMVI
  GI50: > 10 µM (inactive)
CCRF-CEM
  GI50: > 10 µM (inactive)
SK-MEL-28
  GI50: > 10 µM (inactive)
CAKI-1
  GI50: > 10 µM (inactive)
SNB-75
  GI50: > 10 µM (inactive)
K562
  GI50: > 10 µM (inactive)
OVCAR-3
  GI50: > 10 µM (inactive)
EKVX
  GI50: > 10 µM (inactive)
HT-29
  GI50: > 10 µM (inactive)
SF-539
  GI50: > 10 µM (inactive)
MDA-MB-435
  GI50: > 10 µM (inactive)
RXF 393
  GI50: > 10 µM (inactive)
KM12
  GI50: > 10 µM (inactive)
NCI-H460
  GI50: > 10 µM (inactive)
COLO 205
  GI50: > 10 µM (inactive)
SK-OV-3
  GI50: > 10 µM (inactive)
MCF7
  GI50: > 10 µM (inactive)
OVCAR-4
  GI50: > 10 µM (inactive)
SF-295
  GI50: > 10 µM (inactive)
UACC-62
  GI50: > 10 µM (inactive)
HCT-116
  GI50: > 10 µM (inactive)
A549
  GI50: > 10 µM (inactive)

## CC(C)=CCc1c2c(c3occ(-c4ccc(O)cc4)c(=O)c3c1O)CC(C(C)(C)O)O2 (stereo unspecified) [SENEGALENSIN]
OVCAR-8
  GI50: 17 µM (inactive)
DU-145
  GI50: 15.5 µM (inactive)
MDA-MB-231
  GI50: 14.4 µM (inactive)
SF-268
  GI50: 26.5 µM (inactive)
HCC 2998
  GI50: 11.2 µM (inactive)
T47D
  GI50: 10.3 µM (inactive)
OVCAR-5
  GI50: 19.1 µM (inactive)
UACC-257
  GI50: 15.7 µM (inactive)
M14
  GI50: 14.5 µM (inactive)
SW-620
  GI50: 21.7 µM (inactive)
A498
  GI50: 16.1 µM (inactive)
MDA-N
  GI50: 21.4 µM (inactive)
UO-31
  GI50: 10 µM (inactive)
HCT-15
  GI50: 13.1 µM
ACHN
  GI50: 14.8 µM (inactive)
IGROV-1
  GI50: 2.8 µM (inactive)
MOLT-4
  GI50: 11.7 µM (inactive)
SNB-19
  GI50: 16.4 µM (inactive)
SK-MEL-2
  GI50: 14.6 µM (inactive)
SK-MEL-5
  GI50: 15.2 µM (inactive)
HL-60
  GI50: 12.4 µM (inactive)
Hs-578T
  GI50: 36.1 µM (inactive)
NCI-H226
  GI50: 20.3 µM (inactive)
NCI-H23
  GI50: 18.7 µM (inactive)
Malme-3M
  GI50: 21.3 µM (inactive)
HOP-62
  GI50: 18.7 µM (inactive)
NCI/ADR-RES
  GI50: 15.7 µM (inactive)
HOP-92
  GI50: 18 µM (inactive)
786-0
  GI50: 16.8 µM (inactive)
BT-549
  GI50: 17 µM (inactive)
SN12C
  GI50: 19.6 µM (inactive)
PC-3
  GI50: 13.8 µM (inactive)
NCI-H522
  GI50: 15.8 µM (inactive)
U-251
  GI50: 13.2 µM (inactive)
TK-10
  GI50: 16.5 µM (inactive)
LOX IMVI
  GI50: 14.9 µM (inactive)
CCRF-CEM
  GI50: 17.5 µM (inactive)
SK-MEL-28
  GI50: 24.3 µM (inactive)
CAKI-1
  GI50: 18.8 µM (inactive)
SNB-75
  GI50: 17.8 µM (inactive)
K562
  GI50: 17.2 µM (inactive)
OVCAR-3
  GI50: 14.4 µM (inactive)
HT-29
  GI50: 12 µM (inactive)
SF-539
  GI50: 20.1 µM (inactive)
MDA-MB-435
  GI50: 16.6 µM (inactive)
RXF 393
  GI50: 13.6 µM (inactive)
KM12
  GI50: 16.8 µM (inactive)
NCI-H460
  GI50: 12.5 µM (inactive)
COLO 205
  GI50: 14.6 µM (inactive)
SK-OV-3
  GI50: 18.8 µM (inactive)
MCF7
  GI50: 12.8 µM (inactive)
RPMI-8226
  GI50: 9.77 µM (inactive)
OVCAR-4
  GI50: 12.9 µM (inactive)
SF-295
  GI50: 12.1 µM (inactive)
UACC-62
  GI50: 16.4 µM (inactive)
HCT-116
  GI50: 16.7 µM (inactive)
A549
  GI50: 13 µM (inactive)
